Measurements as given in patent US8581584B2, “Membrane proteins, mechanisms of action and uses thereof” (priority 2010, dated 2013).

Molecular target: M2 conductance domain (residues 22-62) (Influenza A virus, UniProt P0DOF5, C50S)
Format: biochemical, influenza A Udorn/1972 virus

SMILES: NC12CC3CC(CC(C3)C1)C2 [amantadine]
- blockage of proton uptake: ~80%
- proton flux, initial slope of proton uptake per tetramer vs time: 30 protons per tetramer per second
